# Source: the CATMoS acute toxicity set (Mansouri et al. 2021)
# Experiment: GHS categories as the set defines them, by LD50: 1 up to 5, 2 up to 50, 3 up to 300, 4 up to 2000, 5 above 2000 mg/kg
# Conditions: rat; in vivo; po
row,SMILES,GHS category
1,CCCCCCCCCCCC(=O)OC1CC(C)(C)NC(C)(C)C1,5
2,COc1ccccc1NC(=O)c1cc2ccccc2cc1O,5
3,Cc1cccc2ncc(C(=O)NC3CCCCCC3)c(=O)n12,3
4,COc1ccccc1C1NC(=O)C(C)S1 (stereo not drawn),5
5,CC=Cc1ccc(OCCCCC)c(OC)c1,5
6,CNC(=O)C(C#N)=c1[nH]c(=C2C(=O)NC(=O)NC2=O)c2ccccc12,5
7,Cn1c(=O)oc2cc(C(=O)c3ccccc3)ccc21,5
8,CCC(COC(=O)c1cc(OC)c(OC)c(OC)c1)(c1ccccc1)N(C)C (stereo not drawn),5
9,NC(N)=Nc1nc(CSCC/N=C/NS(=O)(=O)c2ccc(Br)cc2)cs1,5
10,CC(C)OC(=O)N[C@H](C(=O)N[C@H](C)c1nc2ccc(F)cc2s1)C(C)C,5
11,O=C1CC[C@H]2CO[C@@H]1O2,5
12,O=C1NC(=O)C(c2ccccc2)(c2ccccc2O)N1 (stereo not drawn),5
13,CCOC(C)(C)CC,5
14,Cc1nc2ncnn2c(C)c1Cc1ccc(-c2ccccc2-c2nn[nH]n2)cc1,4
15,CC(C)c1cc2c(cc1S(=O)(=O)O)[C@@]1(C)CCC[C@@](C)(C(=O)O)[C@@H]1CC2,5
16,NCCCC[C@H](N[C@@H](CCc1ccccc1)C(=O)O)C(=O)N1CCC[C@H]1C(=O)O,5
17,CCCCC/C=C\C=C\C(=O)OCC,5
18,CCCCC1OC(C)CC(C)(C)O1 (stereo not drawn),5
19,CCCC(=O)O[C@]1(C(=O)CO)CC[C@H]2[C@@H]3CCC4=CC(=O)CC[C@]4(C)[C@H]3[C@@H](O)C[C@@]21C,5
20,CCN(CC)CCOC(=O)c1ccc(-n2c(C)nc3ccccc3c2=O)cc1,5
21,CCCCCCC(=O)OC1CCC2C3CCC4=CC(=O)CCC4(C)C3CCC12C (stereo not drawn),4
22,CNC(=O)Oc1ccc(N(C)C)c(C)c1,2

row,SMILES,GHS category
1,CCCCCCCCCCCC(=O)OCC(COC(=O)CCCCCC)OC(=O)CCCCCCC (stereo not drawn),5
2,CCCCCOC(=O)CCCCC,5
3,CC(=O)CC(=O)OCCOC(=O)CC(C)=O,5
4,CCCCCCCCCCCCCOC(=O)CCCCC(=O)OCCCCCCCCCCCCC,5
5,Brc1c(Br)c(Br)c(-c2c(Br)c(Br)c(Br)c(Br)c2Br)c(Br)c1Br,5
6,COC(=O)C1=C(C)NC(C)=C(C(=O)OC2COC3C(O)COC23)C1c1cccc([N+](=O)[O-])c1 (stereo not drawn),5
7,CCSC,5
8,COc1cc(OC)nc(NC(=O)NS(=O)(=O)c2ncccc2OCC(F)(F)F)n1,5
9,COc1cc(S(=O)(=O)O)c(C)cc1/N=N/c1c(O)ccc2cc(S(=O)(=O)O)ccc12,5
10,C=C1NC(=O)C(C)NC(=O)C(C(C)C)NC2C=Cc3c(C(C)O)cc(nc3C2O)C(=O)OC(C)C2NC(=S)c3csc(n3)C(C(C)(O)C(C)O)NC(=O)C3CSC(=N3)C(=CC)NC(=O)C(C(C)O)NC(=O)c3csc(n3)C3(CCC(c4nc(C(N)=O)cs4)NC3c3csc2n3)NC(=O)C(C)NC1=O (stereo not drawn),5
11,CCCCOC(=O)CC(O)C(=O)OCCCC (stereo not drawn),5
12,CC(C)=CCC/C(C)=C/CC/C(C)=C/CCC(=O)OC/C=C(\C)CCC=C(C)C,5
13,Cc1cc2[nH]c(=O)[nH]c2cc1N=NC1C(=O)NC(=O)NC1=O,5
14,C#CCC(O[Si](CC)(CC)CC)[Si](CC)(CC)CC (stereo not drawn),5
15,CNc1nc(Nc2ccc(C=Cc3ccc(Nc4nc(NC)nc(N(CCO)CCO)n4)cc3S(=O)(=O)O)c(S(=O)(=O)O)c2)nc(N(CCO)CCO)n1,5
16,COc1ccc(C(=O)Nc2ccc(C(N)=O)cc2)cc1[N+](=O)[O-],5
17,FC(F)(Cl)C(Cl)(Cl)Cl,5
18,CC/C=C\CCCCCCCCOC(C)=O,5
19,CC(C)(c1ccc(OCC2CO2)cc1)c1ccc(OCC2CO2)cc1 (stereo not drawn),4
20,CNC(=O)c1sc(-c2ccc(OC)c(OC)c2)nc1C,5
21,NC(=O)Oc1ccccc1C(=O)Oc1ccc(Cl)cc1,5
